Measurements taken from PMC2962730 (Journal of neurochemistry, 2010).
Residue numbers refer to the chain shown, from its start.

What was measured:
hVAChT A321F [1] = biological target: T1, hVAChT A321F (Homo sapiens, UniProt Q16572, A321F); assay: ACh equilibrium binding by competition against [3H]vesamicol
T1 sequence (Q16572 1-532 A321F): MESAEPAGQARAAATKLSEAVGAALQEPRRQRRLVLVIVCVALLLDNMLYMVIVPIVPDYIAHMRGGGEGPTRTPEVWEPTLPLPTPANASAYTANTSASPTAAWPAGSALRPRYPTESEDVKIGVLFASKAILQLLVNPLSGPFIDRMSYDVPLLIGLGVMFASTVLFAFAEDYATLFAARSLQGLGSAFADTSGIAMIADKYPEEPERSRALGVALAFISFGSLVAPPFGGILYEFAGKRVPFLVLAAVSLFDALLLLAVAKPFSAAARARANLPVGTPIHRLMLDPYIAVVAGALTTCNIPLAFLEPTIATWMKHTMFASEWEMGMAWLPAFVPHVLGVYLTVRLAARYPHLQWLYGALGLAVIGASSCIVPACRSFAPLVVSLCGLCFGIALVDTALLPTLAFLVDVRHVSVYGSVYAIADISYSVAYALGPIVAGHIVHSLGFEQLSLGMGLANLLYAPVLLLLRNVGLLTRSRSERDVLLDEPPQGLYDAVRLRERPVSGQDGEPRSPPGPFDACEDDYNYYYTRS

hVAChT Y60A = biological target: T2, hVAChT Y60A (Homo sapiens, UniProt Q16572, Y60A); assay: [3H]vesamicol saturation binding; conditions: pH 7.4
T2 sequence (Q16572 1-532 Y60A): T1 sequence (Q16572 1-532 A321F) with Y60A, F321A

hVAChT F231A = biological target: T3, hVAChT F231A (Homo sapiens, UniProt Q16572, F231A); assay: [3H]vesamicol saturation binding; conditions: pH 7.4
T3 sequence (Q16572 1-532 F231A): T1 sequence (Q16572 1-532 A321F) with F231A, F321A

hVAChT W331L = biological target: T4, hVAChT W331L (Homo sapiens, UniProt Q16572, W331L); assay: [3H]vesamicol saturation binding; conditions: pH 7.4
T4 sequence (Q16572 1-532 W331L): T1 sequence (Q16572 1-532 A321F) with F321A, W331L

hVAChT M316A = biological target: T5, hVAChT M316A (Homo sapiens, UniProt Q16572, M316A); assay: [3H]vesamicol saturation binding; conditions: pH 7.4
T5 sequence (Q16572 1-532 M316A): T1 sequence (Q16572 1-532 A321F) with M316A, F321A

hVAChT A321F [2] = biological target: T1, hVAChT A321F; assay: [3H]vesamicol saturation binding; conditions: pH 7.4

| SMILES | Kd (hVAChT A321F [1]) [mM] | FHA, fraction of the ACh sites that have high affinity (hVAChT A321F [1]; A321F hVAChT, pH 7.4) | Bmax, maximal specific [3H]vesamicol binding (VAChT expression level) (hVAChT Y60A) [pmol/mg] | Bmax, maximal specific [3H]vesamicol binding (VAChT expression level) (hVAChT F231A) [pmol/mg] | Bmax, maximal specific [3H]vesamicol binding (VAChT expression level) (hVAChT W331L) [pmol/mg] | Bmax, maximal specific [3H]vesamicol binding (VAChT expression level) (hVAChT M316A) [pmol/mg] | Bmax, maximal specific [3H]vesamicol binding (VAChT expression level) (hVAChT A321F [2]) [pmol/mg] |
| --- | --- | --- | --- | --- | --- | --- | --- |
| CC(=O)OCC[N+](C)(C)C [ACh, acetylcholine] | 15 ± 2 | 0.90 ± 0.06 |  |  |  |  |  |
| O[C@@H]1CCCC[C@H]1N1CCC(c2ccccc2)CC1 (racemic) [vesamicol, ( )-trans-2-(4-phenylpiperidino)cyclohexanol] |  |  | 31 ± 2 | 64 ± 4 | 14 ± 1 | 38 ± 2 | 21 ± 1 |
